Laboratory results published in patent publication EP2951180B1, “2,6,7,8 SUBSTITUTED PURINES AS HDM2 INHIBITORS” (Merck Sharp & Dohme Corp., priority 2013, dated 2014).

These compounds were tested against T1, HDM2 (Homo sapiens, UniProt Q00987) (assay: HDM2 FRET assay (inhibition of binding of FITC labeled p53-pocket peptide to HDM2)). Conditions: 0.5 nM HDM2 (residues 17 to 125), 3nM peptide, two hour incubation at room temperature; read-out: FRET IC50.
T1 construct: Thioredoxin (N); made in house; host or cells: E. coli strain BL21(DE3)Rosetta
Method in brief: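 Final: 0.5 nM His-HDM2, 3 nM FITC peptide, 0.25 nM Tb anti-His Ab; PBS, 0.01% BSA, 0.01% Tween-20; 0.1% DMSO.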

T1 sequence (Q00987 17-125): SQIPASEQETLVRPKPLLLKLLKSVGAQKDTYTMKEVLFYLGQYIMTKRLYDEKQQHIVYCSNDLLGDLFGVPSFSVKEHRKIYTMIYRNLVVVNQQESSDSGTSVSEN

Structure (SMILES) | IC50 [nM]
C[C@@H](Nc1nc(-c2nnnn2C)nc2nc(N3CCOC[C@H]3c3ccccc3)n(C[C@H]3CC[C@H](C)CC3)c12)C1CCC1 [Example 12.12, N-[(1R)-1-cyclobutylethyl]-7-[(trans-4-methylcyclohexyl)methyl]-2-(1-methyl-1H-tetrazol-5-yl)-8-[(3R)-3-phenylmorpholin-4-yl]-7H-purin-6-amine] | 27.3
CC1CCCC(c2nc(-c3noc(=O)[nH]3)nc3nc(N4CCOC[C@H]4c4ccccc4)n(C[C@H]4CC[C@H](C)CC4)c23)C1 (stereo partly drawn) [Example 16.169, 3-{6-(3-methylcyclohexyl)-7-[(trans-4-methylcyclohexyl)methyl]-8-[(3R)-3-phenylmorpholin-4-yl]-7H -purin-2-yl}-1,2,4-oxadiazol-5(4H)-one] | 2.53
C[C@H]1CC[C@H](Cn2c(N3CCO[C@H]4CCC[C@@H]43)nc3nc(-c4noc(=O)[nH]4)nc(-c4cccc(Cl)c4)c32)CC1 [Example 16.81, 3-{6-(3-chlorophenyl)-8-[(4aS,7aS)-hexahydrocyclopenta [b][1,4]oxazin-4(4aH)-yl]-7-[(trans-4-methylcyclohexyl)methyl]-7H-purin-2-yl}-1,2,4-oxadiazol-5(4H)-one] | 105
CC(C)c1ccnc(-c2nc3nc(-c4noc(=O)[nH]4)nc(-c4cccc(Cl)c4)c3n2C[C@H]2CC[C@H](C)CC2)c1 [Example 16.16, 3-{6-(3-chlorophenyl)-7-[(trans-4-methylcyclohexyl)methyl]-8-[4-(1-methylethyl)pyridin-2-yl]-7H-purin-2-yl}-1,2,4-oxadiazol-5(4H)-one] | 11.4
C[C@@H](Nc1nc(C(O)CO)nc2nc(N3CCOC[C@H]3c3ccccc3)n(C[C@H]3CC[C@H](C)CC3)c12)C1CCC1 (stereo partly drawn) [Example 12.20, 1-(6-(((R)-1-cyclobutylethyl)amino)-7-((trans-4-methylcyclohexyl)methyl)-8-((R)-3-phenylmorpholino)-7H-purin-2-yl)ethane-1,2-diol] | 49.4
C[C@H](Nc1nc2nc(-c3n[nH]c(=O)o3)nc(-c3cccc(Cl)c3)c2n1C[C@H]1CC[C@H](C)CC1)c1cccc(F)c1 [Example 16.55, 5-{6-(3-chlorophenyl)-8-{[(1S)-1-(3-fluorophenyl)ethyl]amino}-7-[(trans-4-methylcyclohexyl)methyl]-7H-purin-2-yl}-1,3,4-oxadiazol-2(3H)-one] | 5.04

Same assay, conditions: Table 6; read-out: FRET IC50

Structure (SMILES) | IC50 [nM]
CC[C@H](Nc1nc(C(=O)O)nc2nc(-c3cc(C(C)C)ccn3)n(Cc3ccc(C(F)(F)F)cc3)c12)C1CCC1 [Example 6.54, 6-{[(1S)-1-cyclobutylpropyl]amino}-8-[4-(1-methylethyl)pyridin-2-yl]-7-[4-(trifluoromethyl)benzyl]-7H-purine-2-carboxylic acid] | 203
Cc1cccc(-c2nc3nc(C(=O)O)nc(N[C@H](C)C4CCCC4)c3n2Cc2ccc(Cl)cc2)c1 [Example 6.3, 7-(4-chlorobenzyl)-6-{[(1R)-1-cyclopentylethyl]amino}-8-(3-methylphenyl)-7H-purine-2-carboxylic acid] | 31.4
Cc1cccc(-c2nc3nc(C(=O)O)nc(N[C@H](C)C(C)(C)C)c3n2Cc2ccc(C(F)(F)F)cc2)c1 [Example 6.47, 8-(3-methylphenyl)-7-[4-(trifluoromethyl)benzyl]-6-{[(1R)-1,2,2-trimethylpropyl]amino}-7H-purine-2-carboxylic acid] | 448
Cc1cccc(-c2nc3nc(C(=O)O)nc(N[C@H](C)C4CCCCC4)c3n2Cc2ccc(Cl)cc2)c1 [Example 6.4, 7-(4-chlorobenzyl)-6-{[(1R)-1-cyclohexylethyl]amino}-8-(3-methylphenyl)-7H-purine-2-carboxylic acid] | 1030

Same assay, conditions: Table 9; read-out: FRET IC50

Structure (SMILES) | IC50 [nM]
C[C@@H](Nc1nc2nc(C(=O)O)nc(N[C@H](C)C3CCC3)c2n1Cc1ccc(C(F)(F)F)cc1)c1ccccc1 [Example 9.17] | 15.8
C[C@H](Nc1nc2nc(C(=O)O)nc(N[C@H](C)C3CCC3)c2n1Cc1ccc(C(F)(F)F)cc1)c1cccc(F)c1 [Example 9.39, 6-{[(1R)-1-cyclobutylethyl]amino}-8-{[(1S)-1-(3-fluorophenyl)ethyl]amino}-7-[4-(trifluoromethyl)benzyl]-7H-purine-2-carboxylic acid] | 0.753
CC[C@H](Nc1nc2nc(C(=O)O)nc(N[C@H](C)C3CCC3)c2n1Cc1ccc(C(F)(F)F)cc1)c1ccccc1 [Example 9.36, 6-{[(1R)-1-cyclobutylethyl]amino}-8-{[(1S)-1-phenylpropyl]amino}-7-[4-(trifluoromethyl)benzyl]-7H-purine-2-carboxylic acid] | 0.862

Same assay, conditions: Table 11; read-out: FRET IC50

Structure (SMILES) | IC50 [nM]
C[C@@H](Nc1nc(-c2noc(=O)[nH]2)nc2nc(N3CCCCC3Cc3ccccc3)n(C[C@H]3CC[C@H](C)CC3)c12)C1CCC1 (stereo partly drawn) [Example 11.45, 3-{8-(2-benzylpiperidin-1-yl)-6-{[(1R)-1-cyclobutylethyl]amino}-7-[(trans-4-methylcyclohexyl)methyl]-7H-purin-2-yl}-1,2,4-oxadiazol-5(2H)-one] | 81.9
C[C@@H](Nc1nc(-c2noc(=O)[nH]2)nc2nc(N(C)Cc3cnn(C)c3)n(C[C@H]3CC[C@H](C)CC3)c12)C1CCC1 [Example 11.71, 3-(6-{[(1R)-1-cyclobutylethyl]amino}-7-[(trans-4-methylcyclohexyl)methyl]-8-{methyl[(1-methyl-1H-pyrazol-4-yl)methyl]amino}-7H-purin-2-yl)-1,2,4-oxadiazol-5(2H)-one] | 24.3
CCC1CCCN1c1nc2nc(-c3noc(=O)[nH]3)nc(N[C@H](C)C3CCC3)c2n1C[C@H]1CC[C@H](C)CC1 (stereo partly drawn) [Example 11.33, 3-(6-{[(1R)-1-cyclobutylethyl]amino}-8-(2-ethylpyrrolidin-1-yl)-7-[(trans-4-methylcyclohexyl)methyl]-7H-purin-2-yl)-1,2,4-oxadiazol-5(2H)-one] | 5.37
C[C@@H](Nc1nc(-c2n[nH]c(=O)o2)nc2nc(N3CCO[C@H]4CCCC[C@H]43)n(C[C@H]3CC[C@H](C)CC3)c12)C1CCC1 (single isomer, unassigned) [Example 11.162] | 7.4
COc1cccc(C2CCCCN2c2nc3nc(C(=O)O)nc(N[C@H](C)C4CCC4)c3n2C[C@H]2CC[C@H](C)CC2)c1 (stereo partly drawn) [Example 11.31, 6-{[(1R)-1-cyclobutylethyl]amino}-8-[2-(3-methoxyphenyl)piperidin-1-yl]-7-[(trans-4-methylcyclohexyl)methyl]-7H-purine-2-carboxylic acid] | 2.26
C[C@@H](Nc1nc(C(=O)O)nc2nc(N3CCCC4CCCCC43)n(C[C@H]3CC[C@H](C)CC3)c12)C1CCC1 (stereo partly drawn) [Example 11.20, 6-{[(1R)-1-cyclobutylethyl]amino}-7-[(trans-4-methylcyclohexyl)methyl]-8-(octahydroquinolin-1(2H)-yl)-7H-purine-2-carboxylic acid] | 1.34
C[C@@H](Nc1nc(-c2noc(=O)[nH]2)nc2nc(N(C)Cc3ccncn3)n(C[C@H]3CC[C@H](C)CC3)c12)C1CCC1 [Example 11.70, 3-(6-{[(1R)-1-cyclobutylethyl]amino}-7-[(trans-4-methylcyclohexyl)methyl]-8-[methyl(pyrimidin-4-ylmethyl)amino]-7H-purin-2-yl)-1,2,4-oxadiazol-5(2H)-one] | 22.8
C[C@@H](Nc1nc(-c2noc(=O)[nH]2)nc2nc(N3CCCC3c3ccccc3)n(C[C@H]3CC[C@H](C)CC3)c12)C1CCC1 (stereo partly drawn) [Example 11.130, 3-[6-{[(1R)-1-cyclobutylethyl]amino}-7-[(trans-4-methylcyclohexyl)methyl]-8-(2-phenylpyrrolidin-1-yl)-7H-purin-2-yl]-1,2,4-oxadiazol-5(4H)-one] | 2.05

Same assay, conditions: Table 18; read-out: FRET IC50

Structure (SMILES) | IC50 [nM]
CC(C)c1ccnc(-c2nc3nc(C(=O)O)nc(N[C@H](C)C4CCC4)c3n2CC2CCC(C)(C)CC2)c1 [Example 18.8, (R)-6-((1-cyclobutylethyl)amino)-7-((4,4-dimethylcyclohexyl)methyl)-8-(4-isopropylpyridin-2-yl)-7H-purine-2-carboxylic acid] | 59.5

Same assay, conditions: Table 20; read-out: FRET IC50

Structure (SMILES) | IC50 [nM]
C[C@@H](Nc1nc(C(=O)O)nc2nc(C3(c4ccccc4)CCC3)n(C[C@H]3CC[C@H](C)CC3)c12)C1CCC1 [Example 20.1, 6-{[(1R)-1-cyclobutylethyl]amino}-7-[(trans-4-methylcyclohexyl)methyl]-8-(1-phenylcyclobutyl)-7H-purine-2-carboxylic acid] | 1.46

Same assay, conditions: Table 22; read-out: FRET IC50

Structure (SMILES) | IC50 [nM]
C[C@@H](Nc1nc(-c2noc(=O)[nH]2)nc2nc(C(O)C3CCOCC3)n(C[C@H]3CC[C@H](C)CC3)c12)C1CCC1 (stereo partly drawn) [Example 22.34, 3-(6-{[(1R)-1-cyclobutylethyl]amino}-8-[hydroxy(tetrahydro-2H-pyran-4-yl)methyl]-7-[(trans-4-methylcyclohexyl)methyl] -7H-purin-2-yl)-1,2,4-oxadiazol-5(4H)-one] | 24.6
CCC(CO)c1nc2nc(-c3noc(=O)[nH]3)nc(N[C@H](C)C3CCC3)c2n1C[C@H]1CC[C@H](C)CC1 (stereo partly drawn) [Example 22.82, 3-(6-{[(1R)-1-cyclobutylethyl]amino}-8-[1-(hydroxymethyl)propyl]-7-[(trans-4-methylcyclohexyl)methyl]-7H-purin-2-yl)-1,2,4-oxadiazol-5(4H)-one] | 10.1
C[C@@H](Nc1nc(-c2noc(=O)[nH]2)nc2nc(C(C)(O)c3ccccn3)n(C[C@H]3CC[C@H](C)CC3)c12)C1CCC1 (single isomer, unassigned) [Example 22.7] | 19.9

Same assay, conditions: Table 23; read-out: FRET IC50

Structure (SMILES) | IC50 [nM]
C[C@H]1CC[C@H](Cn2c(C3(F)CCCCC3)nc3nc(-c4noc(=O)[nH]4)nc(-c4cncc(Cl)c4)c32)CC1 [Example 23.39, 3-{6-(5-chloropyridin-3-yl)-8-(1-fluorocyclohexyl)-7-[(trans-4-methylcyclohexyl)methyl] -7H-purin-2-yl}-1,2,4-oxadiazol-5(4H)-one] | 18.1
